Results taken from patent publication US20210317099A1, “SAFER, POTENT, AND FAST ACTING ANTIMICROBIAL AGENTS” (Purdue Research Foundation, priority 2020, published 2021).
≈ marks a conversion by molar mass, not a printed value.

What follows are compounds tested on Staphylococcus aureus NRS384 (MRSA USA300) (assay: Initial MIC screening, broth microdilution (CLSI)). Conditions: MRSA USA300, Table 1 assay.
Format: cell-based
Protocol: Method: The minimum inhibitory concentration (MIC) of the compounds 1-187, and control antibiotics (vancomycin, linezolid) was determined using the broth microdilution method against methicillin-resistant Staphylococcus aureus (MRSA) USA 300 using the broth microdilution method according to the guidelines outlined by the Clinical and Laboratory Standards Institute (CLSI). MRSA strain was cultivated on Tryptic soy agar plates and let grow for 24 hours at 37° C. under aerobic conditions. Bacterial suspension equivalent to 0.5 McFarland standard was prepared and diluted in cation-adjusted Mueller-Hinton broth (CAMHB) to attain a bacterial concentration of 5×10^5 CFU/ml and seeded in 96-well plates. The desired concentrations of each drug and compound were added in the first row of the 96-well plates and serially diluted to achieve a concentration gradient from 64 μg/ml to 0.5 μg/mL.

SMILES | potency compared with control antibiotic
O=C1O[C@H](c2ccc3ccccc3c2)[C@H](c2ccc3ccccc3c2)C1CN1CCCCC1 (stereo partly shown) [Compound 167] | potency comparable to vancomycin

Same assay, conditions: Staphylococcus aureus NRS384 (MRSA USA300), broth microdilution, visual reading

MIC [µg/mL] | SMILES
>128 | CCN(CC)CC1C(=O)O[C@H](c2ccc3ccccc3c2)[C@H]1c1ccccc1 (stereo partly shown) [Compound 108]
≤1 | C=C1C(=O)O[C@H](c2ccccc2)[C@@H]1c1ccc2ccccc2c1 [Compound 109]
16 (≈ 63.9 µM) | C=C1C(=O)O[C@H](c2ccccc2)[C@@H]1c1ccccc1 [Compound 150]
32 (≈ 107 µM) | C=C1C(=O)O[C@H](c2ccc3ccccc3c2)[C@@H]1c1ccccc1 [Compound 21]
8 (≈ 26.6 µM) | C=C1C(=O)O[C@H](c2ccccc2)[C@@H]1c1ccc2ccccc2c1 [Compound 107]
64 (≈ 206 µM) | C=C1C(=O)O[C@H](c2ccc(OC)cc2)[C@@H]1c1ccc(OC)cc1 [Compound 68]

Same assay, conditions: Staphylococcus aureus, Staphylococcus aureus NRS384 (MRSA USA300), broth microdilution, visual reading; read-out: MIC

MIC [µg/mL] | SMILES
> 128 | O=C1O[C@H](c2ccc3ccccc3c2)CC1CN1CCCCC1 (stereo partly shown) [Compound 31]
> 128 | C=C1C(=O)O[C@H](c2ccccc2)[C@@H]1c1ccc(C#N)cc1 [Compound 69]
> 64 | O=C1O[C@H](c2cccc3ccccc23)[C@H](c2ccc3ccccc3c2)C1CN1CCCCC1 (stereo partly shown) [Compound 164]
64 (≈ 228 µM) | C=C1C(=O)O[C@H](c2ccc(OC)cc2)[C@@H]1c1ccccc1 [Compound 75]
16 (≈ 52.4 µM) | C=C1C(=O)O[C@H](c2cccc(C#N)c2)[C@@H]1c1ccc(OC)cc1 [Compound 20]
32 (≈ 128 µM) | C=C1C(=O)O[C@H](c2ccccc2)[C@@H]1c1ccccc1 [Compound 103]
4 (≈ 13.8 µM) | C=C1C(=O)O[C@H](c2ccc(C)cc2)[C@@H]1c1ccc(C#N)cc1 [Compound 65]
32 (≈ 78.4 µM) | C=C1C(=O)O[C@H](c2cc(OC)c(OC)c(OC)c2)[C@@H]1c1ccc(C(F)(F)F)cc1 [Compound 92]
32 (≈ 94.3 µM) | COc1ccc([C@H]2OC(=O)[C@@H](CN(C)C)[C@H]2c2ccc(C)cc2)cc1 [Compound 7]
128 (≈ 416 µM) | C=CCNC[C@@H]1C(=O)O[C@H](c2ccccc2)[C@@H]1c1ccccc1 [Compound 63]
8 (≈ 22.3 µM) | C=C1C(=O)O[C@H](c2ccc(OC)cc2)[C@@H]1c1ccc(Br)cc1 [Compound 2]
16 (≈ 54.4 µM) | C=C1C(=O)O[C@H](c2ccc(OC)cc2)[C@@H]1c1ccc(C)cc1 [Compound 74]
> 128 | CCN(CC)CC1C(=O)O[C@H](c2ccc3ccccc3c2)[C@H]1c1ccccc1 (stereo partly shown) [Compound 95]
> 128 | C/C=C1/C(=O)O[C@H](c2ccc(C)cc2)[C@H]1C [Compound 104]
128 (≈ 377 µM) | COc1ccc([C@@H]2C(CN(C)C)C(=O)O[C@@H]2c2ccc(C)cc2)cc1 (stereo partly shown) [Compound 86]
> 128 | CC1(C)CC(CN2CCCCC2)C(=O)O1 (stereo not shown) [Compound 80]
> 128 | C=C1C(=O)OC[C@@H]1c1ccccc1 [Compound 25]
16 (≈ 47.7 µM) | O=C1O[C@H](c2ccccc2)[C@H](c2ccccc2)C1CN1CCCCC1 (stereo partly shown) [Compound 159]
> 128 | O=C1O[C@H](c2ccccc2)CC1CN1CCCCC1 (stereo partly shown) [Compound 32]
> 64 | C=C(C(=O)OC)C(c1cccc2ccccc12)C(O)c1ccc2ccccc2c1 (stereo not shown) [Compound 146]
> 128 | C=C1C(=O)O[C@H](C2CCCCC2)[C@@H]1c1ccc(C)cc1 [Compound 93]
2 (≈ 6.66 µM) | C=C1C(=O)O[C@H](c2ccccc2)[C@H]1c1ccc2ccccc2c1 [Compound 115]

MIC [µg/mL] | SMILES
128 (≈ 365 µM) | COc1ccc([C@@H]2[C@H](CN(C)C)C(=O)O[C@@H]2c2ccc(C#N)cc2)cc1 [Compound 9]
> 128 | O=C1OC2(CCCC2)CC1CN1CCCCC1 (stereo not shown) [Compound 58]
128 (≈ 414 µM) | Cc1ccc([C@H]2OC(=O)C(CN(C)C)[C@H]2c2ccccc2)cc1 (stereo partly shown) [Compound 18]
> 128 | C=C1C(=O)O[C@H](C2CCCCC2)[C@@H]1c1ccccc1 [Compound 106]
2 (≈ 4.59 µM) | O=C1O[C@H](c2ccc3ccccc3c2)[C@H](c2ccc3ccccc3c2)C1CN1CCCCC1 (stereo partly shown) [Compound 167]
8 (≈ 22.3 µM) | C=C1C(=O)O[C@H](c2ccc(OC)cc2)[C@@H]1c1ccccc1Br [Compound 78]
> 128 | CCN(CC)CC1C(=O)O[C@H](c2ccc3ccccc3c2)[C@@H]1c1ccccc1 (stereo partly shown) [Compound 96]
8 (≈ 20.8 µM) | O=C1O[C@H](c2cccc3ccccc23)[C@H](c2ccccc2)C1CN1CCCCC1 (stereo partly shown) [Compound 162]
16 (≈ 48.1 µM) | C=C(C(=O)OC)C(c1ccccc1)C(O)c1ccc2ccccc2c1 (stereo not shown) [Compound 143]
8 (≈ 22.3 µM) | C=C1C(=O)O[C@H](c2cccc(OC)c2)[C@@H]1c1ccccc1Br [Compound 55]
> 128 | C=C1C(=O)O[C@H](c2c(OC)cc(OC)cc2OC)[C@@H]1c1ccc(C#N)cc1 [Compound 44]
64 (≈ 230 µM) | C=C1C(=O)O[C@H](c2ccc(C)cc2)[C@@H]1c1ccc(C)cc1 [Compound 67]
8 (≈ 23 µM) | C=C1C(=O)O[C@H](c2ccc(OC)cc2)[C@@H]1c1ccc(C(F)(F)F)cc1 [Compound 79]
8 (≈ 23 µM) | C=C1C(=O)O[C@H](c2ccccc2OC)[C@@H]1c1ccc(C(F)(F)F)cc1 [Compound 77]
8 (≈ 24.1 µM) | C=C(C(=O)OC)C(c1ccc2ccccc2c1)C(O)c1ccccc1 (stereo not shown) [Compound 147]
> 128 | CCCCC[C@@H]1CC(CN2CCCCC2)C(=O)O1 (stereo partly shown) [Compound 26]
> 128 | C=C1C(=O)O[C@H](c2cccc(F)c2)[C@@H]1CCC [Compound 84]
32 (≈ 121 µM) | C=C1C(=O)O[C@H](c2ccc(C)cc2)[C@@H]1c1ccccc1 [Compound 71]
32 (≈ 121 µM) | C=C1C(=O)O[C@@H]2c3c(ccc4ccccc34)C(C)C[C@H]12 (stereo partly shown) [Compound 94]
> 128 | O=C1O[C@H](C2CCCCC2)C[C@@H]1CN1CCCCC1 [Compound 47]
8 (≈ 22.6 µM) | C=C1C(=O)O[C@H](c2cccc(Br)c2)[C@@H]1c1ccc(C#N)cc1 [Compound 1]
> 128 | C=C1C(=O)O[C@H](c2cccnc2)[C@@H]1C [Compound 119]

SMILES | MIC [µg/mL]
CC(C)(C)[Si](C)(C)OCC[C@H]1OC(=O)[C@@H](CN2CCCCC2)[C@H]1c1cccc(Br)c1 [Compound 48] | > 128
